Test results reported in patent US8835462B2, “Macrocyclic picolinamides as fungicides” (Dow AgroSciences LLC, priority 2012, dated 2014).
Read-outs that look alike come from different tables or passages of the source.

Tests used:
[1] = test system: Mycosphaerella graminicola; Anamorph: Septoria tritici; experiment: Leaf blotch of wheat (SEPTTR) fungicidal activity on wheat seedlings; type: in vivo; settings: Zymoseptoria tritici
Experimental: Evaluation of Fungicidal Activity: Leaf Blotch of Wheat (Mycosphaerella Graminicola; Anamorph: Septoria tritici; Bayer Code […]) Technical grades of materials were dissolved in acetone, which were then mixed with nine volumes of water containing 110 ppm Triton X-100. The fungicide solutions were applied onto wheat seedlings using an automated booth sprayer to run-off. All sprayed plants were allowed to air dry prior to further handling. Wheat plants (variety Yuma) were grown from seed in a greenhouse in 50% mineral soil/50% soil-less Metro mix until the first leaf was fully emerged, with 7-10 seedlings per pot. These plants were inoculated with an aqueous spore suspension of Septoria tritici either prior to or after fungicide treatments. After inoculation the plants were kept in 100% relative humidity (one day in a dark dew chamber followed by two to three days in a lighted dew chamber at 20° C.) to permit spores to germinate and infect the leaf. The plants were then transferred to a greenhouse set at 20° C. for disease to develop. When disease symptoms were fully expressed on the 1st leaves of untreated plants, infection levels were assessed on a scale of 0 to 100 percent disease severity. Percent disease control was calculated using the ratio of disease severity on treated plants relative to untreated plants.

Puccinia triticina [2] = experiment: Wheat brown rust (PUCCRT) fungicidal activity on wheat seedlings; type: in vivo
Experimental: Technical grades of materials were dissolved in acetone, which were then mixed with nine volumes of water containing 110 ppm Triton X-100. The fungicide solutions were applied onto wheat seedlings using an automated booth sprayer to run-off. All sprayed plants were allowed to air dry prior to further handling. Wheat plants (variety Yuma) were grown from seed in a greenhouse in 50% mineral soil/50% soil-less Metro mix until the first leaf was fully emerged, with 7-10 seedlings per pot. These plants were inoculated with an aqueous spore suspension of Septoria tritici either prior to or after fungicide treatments. After inoculation the plants were kept in 100% relative humidity (one day in a dark dew chamber followed by two to three days in a lighted dew chamber at 20° C.) to permit spores to germinate and infect the leaf. The plants were then transferred to a greenhouse set at 20° C. for disease to develop. When disease symptoms were fully expressed on the 1st leaves of untreated plants, infection levels were assessed on a scale of 0 to 100 percent disease severity. Percent disease control was calculated using the ratio of disease severity on treated plants relative to untreated plants. Evaluation of Fungicidal Activity: Wheat Brown Rust (Puccinia triticina; Synonym: Puccinia recondita f. sp. tritici; Bayer Code PUCCRT) Wheat plants (variety Yuma) were grown from seed in a greenhouse in 50% mineral soil/50% soil-less Metro mix until the first leaf was fully emerged, with 7-10 seedlings per pot. These plants were inoculated with an aqueous spore suspension of Puccinia triticina either prior to or after fungicide treatments. After inoculation the plants were kept in a dark dew room at 22° C. with 100% relative humidity overnight to permit spores to germinate and infect the leaf. The plants were then transferred to a greenhouse set at 24° C. for disease to develop. Fungicide formulation, application and disease assessment followed the procedures as described in the Example A.

Puccinia triticina [3] = experiment: Fungicide mobility (dropline mobility test), wheat brown rust (PUCCRT); type: in vivo; settings: 1 ug/leaf, disease-free zone as percent of distance from marked line to leaf tip; for Dropline Mobility Test PUCCRT 1 DPM: 1 Day Protectant Mobility; for Dropline Mobility Test PUCCRT 3 DCM: 3 Day Curative Mobility
Experimental: Evaluation of Fungicide Mobility: Wheat Brown Rust (Puccinia Triticina; Synonym: Puccinia recondita f. sp. Tritici; Bayer Code PUCCRT):
“Yuma” wheat seedlings were used in the test. One mg of compound was dissolved in 9 μl of EC blank (emulsifiable concentrate) and 500 μl of acetone. Acetone was then evaporated overnight by leaving the vial open in a fume hood. Two milliliters of water containing 110 ppm Triton X-100 was added to each vial to prepare application solutions. A […] drop of formulated material was applied to a marked line on the adaxial surface 5 cm from the leaf tip of the primary leaves. The primary leaves were kept in a horizontal position. Each treatment had 6 replicates. Plants were inoculated with PUCCRT 1-day after (1DPM) or 3-day prior to (3DCM) compound applications. When rust was fully expressed on primary leaves on control plants, the zone of treated leaves that was disease-free in the acropetal direction was measured with a ruler and converted to percent of the distance from marked line to leaf tip.

[4] = 24 h, 1 Day Protectant, read-out: Disease Control SEPTTR 1 DP
[5] = 72 h, 3 Day Curative, read-out: Disease Control SEPTTR 3 DC
[6] = 24 h, 1 Day Protectant, read-out: Disease Control PUCCRT 1 DP
[7] = 72 h, 3 Day Curative, read-out: Disease Control PUCCRT 3 DC

Row | SMILES | melting point [°C] | pest or weed control at 100 ppm [1, 4] [%] | pest or weed control at 100 ppm [1, 5] [%] | pest or weed control at 100 ppm (Puccinia triticina [2]; [6]) [%] | pest or weed control at 100 ppm (Puccinia triticina [2]; [7]) [%] | Dropline Mobility Test PUCCRT 1 DPM (Puccinia triticina [3]) | Dropline Mobility Test PUCCRT 3 DCM (Puccinia triticina [3])
1 | COc1ccnc(C(=O)N[C@H]2COC[C@H](CC3CCCCC3)[C@@H](OCC(C)C)[C@H](C)OC2=O)c1O [Compound 4, N-((3S,7S,8R,9S)-7-(cyclohexylmethyl)-8-isobutoxy-9-methyl-2-oxo-1,5-dioxonan-3-yl)-3-hydroxy-4-methoxypicolinamide] | 89 to 92 | 80 to 100 | 80 to 100 | 80 to 100 | 80 to 100 | – | –
2 | CCCCCO[C@@H]1[C@@H](Cc2ccccc2)COC[C@H](NC(=O)c2nccc(OC)c2O)C(=O)O[C@H]1C [Compound 21] | 51 to 56 | 0 to 80 | 0 to 80 | 80 to 100 | 0 to 80 | B (More than 0-Less than 80) | –
3 | C=C(C)CO[C@@H]1[C@@H](Cc2ccccc2)COC[C@H](N(C(=O)OC(C)(C)C)C(=O)OC(C)(C)C)C(=O)O[C@H]1C [Compound 82, tert-butyl N-[(3S,7S,8R,9S)-7-benzyl-9-methyl-8-(2-methylallyloxy)-2-oxo-1,5-dioxonan-3-yl]-N-tert-butoxycarbonylcarbamate] | 109 to 110 | – | – | – | – | – | –
4 | CCCO[C@@H]1[C@@H](Cc2ccccc2)COC[C@H](NC(=O)c2nccc(OC)c2O)C(=O)O[C@H]1C [Compound 17] | 102 to 104 | 80 to 100 | 80 to 100 | 80 to 100 | 80 to 100 | B (More than 0-Less than 80) | B (More than 0-Less than 80)
5 | C[C@@H]1OC(=O)[C@@H](NC(=O)OC(C)(C)C)COC[C@H](Cc2ccccc2)[C@H]1O [Compound 48, tert-Butyl-(3S,7S,8R,9S)-7-benzyl-8-hydroxy-9-methyl-2-oxo-1,5-dioxonan-3-ylcarbamate] | 62 to 67 | – | – | – | – | – | –
6 | COC(=O)/C=C/O[C@@H]1[C@@H](Cc2ccccc2)COC[C@H](NC(=O)OC(C)(C)C)C(=O)O[C@H]1C [Compound 49, (E)-methyl 3-(((3S,6S,7R,8S)-8-benzyl-3-((tert-butoxycarbonyl)amino)-6-methyl-4-oxo-1,5-dioxonan-7-yl)oxy)acrylate] | 128 to 129 | – | – | – | – | – | –
7 | COc1ccnc(C(=O)N[C@H]2COC[C@H](Cc3ccccc3)[C@@H](OC(=O)C(C)C)[C@H](C)OC2=O)c1O [Compound 1] | 66 to 70 | 80 to 100 | 80 to 100 | 80 to 100 | 80 to 100 | B (More than 0-Less than 80) | B (More than 0-Less than 80)
8 | C=C(C)CO[C@@H]1[C@@H](Cc2ccccc2)COC[C@H](NC(=O)c2nccc(OC)c2O)C(=O)O[C@H]1C [Compound 6] | 96 to 104 | 80 to 100 | 0 to 80 | 80 to 100 | 80 to 100 | – | –
9 | COc1ccnc(C(=O)N[C@H]2COC[C@H](Cc3ccccc3)[C@@H](OC)[C@H](C)OC2=O)c1O [Compound 32] | 57 to 70 | 0 to 80 | 80 to 100 | 80 to 100 | 0 to 80 | B (More than 0-Less than 80) | B (More than 0-Less than 80)
10 | CCCC(C)O[C@@H]1[C@@H](Cc2ccccc2)COC[C@H](NC(=O)c2nccc(OC)c2O)C(=O)O[C@H]1C (stereo partly drawn) [Compound 19] | 52 to 56 | 80 to 100 | 80 to 100 | 80 to 100 | 80 to 100 | B (More than 0-Less than 80) | –
11 | C[C@@H]1OC(=O)[C@@H](NC(=O)OC(C)(C)C)COC[C@H](Cc2ccccc2)[C@H]1O/C=C/C(=O)OCc1ccccc1 [Compound 51, (E)-benzyl 3-(((3S,6S,7R,8S)-8-benzyl-3-((tert-butoxycarbonyl)amino)-6-methyl-4-oxo-1,5-dioxonan-7-yl)oxy)acrylate] | 182 to 185 | – | – | – | – | – | –
12 | C[C@@H]1OC(=O)[C@@H](N(C(=O)OC(C)(C)C)C(=O)OC(C)(C)C)COC[C@H](Cc2ccccc2)[C@H]1O [Compound 57, tert-butyl N-[(3S,7S,8R,9S)-7-benzyl-8-hydroxy-9-methyl-2-oxo-1,5-dioxonan-3-yl]-N-tert-butoxycarbonylcarbamate] | 139 to 141 | – | – | – | – | – | –

Further lines, with some results ahead:

Row | melting point [°C] | SMILES | pest or weed control at 100 ppm [1, 4] [%] | pest or weed control at 100 ppm [1, 5] [%] | pest or weed control at 100 ppm (Puccinia triticina [2]; [6]) [%] | pest or weed control at 100 ppm (Puccinia triticina [2]; [7]) [%] | Dropline Mobility Test PUCCRT 1 DPM (Puccinia triticina [3]) | Dropline Mobility Test PUCCRT 3 DCM (Puccinia triticina [3])
13 | 127 to 129 | CC/C=C/CO[C@@H]1[C@@H](Cc2ccccc2)COC[C@H](N(C(=O)OC(C)(C)C)C(=O)OC(C)(C)C)C(=O)O[C@H]1C [Compound 71] | – | – | – | – | – | –
14 | 80 to 83 | C/C=C/C(C)O[C@@H]1[C@@H](Cc2ccccc2)COC[C@H](N(C(=O)OC(C)(C)C)C(=O)OC(C)(C)C)C(=O)O[C@H]1C (stereo partly drawn) [Compound 67] | – | – | – | – | – | –
15 | 88 to 90 | C=CCO[C@@H]1[C@@H](Cc2ccccc2)COC[C@H](N(C(=O)OC(C)(C)C)C(=O)OC(C)(C)C)C(=O)O[C@H]1C [Compound 65] | – | – | – | – | – | –
16 | 54 to 63 | C[C@@H]1OC(=O)[C@@H](NC(=O)OC(C)(C)C)COC[C@H](Cc2ccccc2)[C@H]1OC(=O)c1ccccc1 [Compound 61] | – | – | – | – | – | –
17 | 100 to 102 | C[C@@H]1OC(=O)[C@@H](N(C(=O)OC(C)(C)C)C(=O)OC(C)(C)C)COC[C@H](Cc2ccccc2)[C@H]1OCCCC(F)(F)F [Compound 69] | – | – | – | – | – | –
18 | 142 to 143 | C[C@@H]1OC(=O)[C@@H](NC(=O)OC(C)(C)C)COC[C@H](Cc2ccccc2)[C@H]1OCCC(=O)N(C)C [Compound 53, tert-butyl ((3S,7S,8R,9S)-7-benzyl-8-(3-(dimethylamino)-3-oxopropoxy)-9-methyl-2-oxo-1,5-dioxonan-3-yl)carbamate] | – | – | – | – | – | –
19 | 131 to 133 | C[C@@H]1OC(=O)[C@@H](N(C(=O)OC(C)(C)C)C(=O)OC(C)(C)C)COC[C@H](Cc2ccccc2)[C@H]1OC/C=C/C(F)(F)F [Compound 66] | – | – | – | – | – | –
20 | 72 to 85 | C[C@@H]1OC(=O)[C@@H](NC(=O)OC(C)(C)C)COC[C@H](Cc2ccccc2)[C@H]1OC(=O)C1CC1 [Compound 62] | – | – | – | – | – | –
21 | 94 to 97 | CCCCCO[C@@H]1[C@@H](Cc2ccccc2)COC[C@H](N(C(=O)OC(C)(C)C)C(=O)OC(C)(C)C)C(=O)O[C@H]1C [Compound 72] | – | – | – | – | – | –
